Results as given in US20120021434A1, “METHOD FOR TREATING B CELL REGULATED AUTOIMMUNE DISORDERS” (Synta Pharmaceuticals Corp., priority 2005, published 2012).

Tests used:
c-Rel = biological target: T1, c-Rel (Mus musculus, UniProt P15307); assay: BD TransFactor assay of c-Rel DNA-binding activity in nuclear extracts of RAW 264.7 cells; assay type: cell-based; conditions: LPS/IFNγ, 1000 nM, 30 min pre-treatment, 3 hrs
T1 construct: nuclear extracts from RAW cells stimulated with LPS/IFNγ; endogenous in cells; host or cells: RAW264.7
Experimental: In this study, we examined the effect of Compound 50 on the DNA-binding activity of nuclear c-Rel. The BD transfactor assay (a non-radioactive version of a super-shift assay) was used to measure the DNA-binding activity of c-Rel. In this assay, nuclear extracts are added to biotinylated double-stranded oligonucleotides containing the NF-κB binding site bound to a streptavidin 96-well plate. Detection of the transcription factor-DNA complex is performed with a specific primary antibody for c-Rel. The 96-well format allows for simultaneous measurement of multiple conditions and proteins using HRP-conjugated secondary antibodies whose enzymatic product can be measured using a luminometer. The level of c-Rel DNA-binding activity increased 40-fold (relative to DMSO control) in nuclear extracts from RAW cells stimulated with LPS/IFNγ.
Methods: 20×10^6 Raw 264.7 cells were treated with either DMSO, LPS/IFNγ, or LPS/IFNγ/Compound 50. (LPS conc. 1 ug/ml f.c.; mouse IFNγ mouse 100 U/ml f.c, Compound 501 uM f.c). (LPS: Sigma Cat # L2654. Mouse IFNγ; Cat # R+D 485-MICF). […]
After measurement of protein concentration using BioRad assay, the nuclear extract was used in a Chemiluminescent NF-κB TransFactor Kit (BD) according to the user manual. […] Finally, amount of bound antibody to the plate was detected by incubation with chemiluminescent substrate and subsequent detection with a luminometer. […]

p105/p50 = assay: LPS/IFNγ-induced phosphorylation of p105/p50 in THP1 cells (immunoblot); assay type: cell-based; conditions: THP1, 100 nM, residues Ser-927 and Ser-933
Experimental: In this study, we examined the effect of Compound 50 on LPS-induced phosphorylation of the NF-κB members p65 and p105/p50. THP1 monocytic cells were stimulated with IFNγ plus LPS in the presence or absence of 100 nM Compound 50 (30 min, 1 h and 3 h) and whole-cell extracts were immunoblotted using anti-phospho p65 and p105/p50 antibodies to detect the phosphorylated forms of these proteins. […] LPS/IFNγ induced phosphorylation of p65 as early as 30 minutes on residues Ser-276, Ser-468 and […]. Compound 50 had no effect on LPS/IFNγ induced phosphorylation at these sites. […] LPS/IFNγ induced phosphorylation of p105 as early as 30 minutes on residues Ser-927 and Ser-933. Compound 50 had no effect on LPS/IFNγ induced phosphorylation at these sites.

T1 sequence (P15307 whole entry): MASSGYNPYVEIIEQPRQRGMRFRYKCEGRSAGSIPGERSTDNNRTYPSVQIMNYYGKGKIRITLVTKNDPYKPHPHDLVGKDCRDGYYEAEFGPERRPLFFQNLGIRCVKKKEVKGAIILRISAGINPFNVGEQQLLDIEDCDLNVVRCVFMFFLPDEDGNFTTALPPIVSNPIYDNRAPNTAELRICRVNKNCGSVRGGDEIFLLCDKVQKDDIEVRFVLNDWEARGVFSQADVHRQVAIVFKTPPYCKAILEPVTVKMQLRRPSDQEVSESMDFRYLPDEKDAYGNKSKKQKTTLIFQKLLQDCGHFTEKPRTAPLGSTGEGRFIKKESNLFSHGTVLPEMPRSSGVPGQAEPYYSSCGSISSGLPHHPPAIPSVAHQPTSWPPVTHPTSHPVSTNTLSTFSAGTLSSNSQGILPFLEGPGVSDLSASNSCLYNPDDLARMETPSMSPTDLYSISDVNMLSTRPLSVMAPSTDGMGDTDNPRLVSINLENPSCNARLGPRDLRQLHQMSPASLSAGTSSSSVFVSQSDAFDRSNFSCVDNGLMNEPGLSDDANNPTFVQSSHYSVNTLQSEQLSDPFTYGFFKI

reduction in the level of c-Rel DNA-binding activity (c-Rel): 40%
SMILES: Cc1cccc(/C=N/Nc2cc(N3CCOCC3)nc(OCCc3ccccn3)n2)c1 [Compound 50, N-(3-Methyl-benzylidene)-N′-[6-morpholin-4-yl-2-(2-pyridin-2-yl-ethoxy)-pyrimidin-4-yl]-hydrazine]
LPS/IFNγ induced phosphorylation of p105 (p105/p50): no effect
